Assay results from a melting point compilation (Tetko et al.; mined from patent text by program, amines drawn as free bases though some values may be those of a salt).

melting point [°C] | Compound
184 to 185 | COC(=O)c1ccc(=O)n(CCNC(=O)c2ccc(C)nc2)c1
172 to 173 | COc1cc(N(C)C)c(Cl)cc1C(=O)NC1CCN(Cc2ccc(Cl)cc2)C1 (stereo not given)
57 | CCCCCCCCc1ccc(C=CC(=O)CC(=O)OCC)cc1
94 to 95 | COC(=O)COc1c(CCC(C)C)c(OC)cc(OC)c1C(=O)CCc1ccc(OC)c(O)c1
125 to 127 | CC(C)(CCn1cnnc1)NCC(O)c1ccc(O)c(CO)c1 (stereo not given)
206 | CC(=O)OCC(=O)Nc1cccc(-c2nnc(C(c3ccc(Cl)cc3)c3c(Cl)ccc(-n4ncc(=O)[nH]c4=O)c3Cl)o2)c1C (stereo not given)
127 to 128 | COc1cc(Nc2nccc(-c3ccc(N4CCC(O)CC4)nc3)n2)cc(OC)c1OC
197 to 200 | CNS(=O)(=O)c1ccc(Nc2nc(N)c(C(=O)c3sccc3C)s2)cc1
310 to 316 | O=C(O)c1ccc2sc3ccccc3c(=O)c2c1
159 to 160 | CC(C(O)c1ccc(O[Si](C(C)C)(C(C)C)C(C)C)c(F)c1)N1CCC(O)(c2ccc(F)cc2)CC1 (stereo not given)
185 to 186 | C1C2CC3CC1CC(C2)C3=C1C2CC3CC(C2)CC1C3
236 to 240 | Nc1ncnc2c1cnn2Cc1oc2ccc(Br)cc2c(=O)c1-c1ccccc1
210 to 212 | O=C(O)C1CCc2c(c3ccccc3n2C(=O)c2cccc(I)c2)C1 (stereo not given)
85 to 86 | C[N+]([O-])=CCC=Cc1ccccc1
129 | Cc1c(C=O)c2ccccc2n1C
> 210 | COc1ccc(CNC(=O)c2cn3c(=O)n(Cc4ccc(C(=O)O)cc4)c(=O)c(C)c3s2)cc1
122 to 123 | CCOc1ccc(C(=O)CCC(=O)Nc2cc(OCCC(C)C)cc(-c3ccccc3)n2)cc1OCC
192 to 194 | Cc1nn(-c2cccnc2)c2nc3cc(F)c(F)cc3c(Cl)c12
210 to 213 | CCOC(=O)c1ccc2c(c1)S(=O)c1ccccc1-2 (stereo not given)
148 to 149 | CC#Cc1cn(C2CC(OC(C)=O)C(COC(C)=O)O2)c(=O)[nH]c1=O (stereo not given)
146 to 147 | COCc1c(C(O)c2ccccc2)ncc2c1c1cc(OCc3ccccc3)ccc1n2S(=O)(=O)c1ccc(C)cc1 (stereo not given)
159 to 160 | O=C(C=Cc1cccc(-c2ccccc2)c1)Nc1ccc(CN2CCCCC2)cc1
196 | Cn1ncnc1COc1nn2c(-c3ccccc3F)nncc2c1-c1c(F)cccc1F
207 to 210 | Cc1ccc(C(=O)N2CCc3nnc(NN)cc3C2)cc1

melting point [°C] | Compound
145 to 146 | CCOC(=O)Nc1ccc2c(c1)CCSCC2=O
186 to 188 | O=C(NCCc1c[nH]c2ccc(C(=O)O)cc12)OCc1ccccc1
209 | CCOC(=O)C1=C(C)Nc2nc(N3CCOCC3)nc(N3CCOCC3)c2C1c1ccncc1 (stereo not given)
168 | Cc1cc(Oc2cc(C(F)(F)F)nn2C)nc(C(=O)O)c1
220 | BrCCc1ccc([Si](c2ccccc2)(c2ccccc2)c2ccc(CCBr)cc2)cc1
140 to 142 | Cc1c(SCCCn2c([N+](=O)[O-])cnc2C)ccnc1CSc1ccncc1
137 to 139 | Clc1ccc(-c2c(Cc3nc4ccccc4o3)cnn2-c2ccccc2)cc1
208 to 210 | Cc1ccccc1S(=O)(=O)NC(=O)c1ccc2c(ccn2Cc2cccc([N+](=O)[O-])c2)c1
110 | OCCCn1c(S)nc2ccccc21
65.5 to 67.5 | C=COCCn1c(CN2CCN(C)CC2)nc2ccccc21
167 to 168 | CCOC(=O)C(N)C=CCP(=O)(O)O (stereo not given)
131 to 132 | O=C(OCc1ccccc1)N1CCC2(CC1)CC(=O)N(O)C2=O
121 to 123 | Cc1cc(C(=O)NCOCc2cccnc2)ncc1C(c1cc(F)ccc1F)S(=O)(=O)c1ccc(F)cc1 (stereo not given)
190 to 192 | CC(C(N)=O)c1ccc2c(c1)C(=O)Cc1cccnc1S2 (stereo not given)
56 to 57 | CCOC(=O)Cc1sc(Sc2cccc(C(F)(F)F)n2)nc1C
173 to 174 | N#Cc1ccc(NC(=O)c2cccc(OCc3ccc(F)c(F)c3)c2)cc1
134 to 135 | CC(C)(C(CC(=O)c1ccccc1)c1cccnc1)[N+](=O)[O-] (stereo not given)
248 to 250 | CC(C)(N)Cn1c(CO)nc2c(N)nc3ccccc3c21
189 to 191 | O=C(O)c1ccc(C(c2ccccc2)c2ccccc2)cn1
51 to 52 | CCOC(=O)c1ccc(CCC(=O)CO)cc1
115 to 130 | CCN(C)c1nsc(NC(=O)N(C)C)c1C#N
> 230 | CC(C)(CO)CNC(=O)c1ccc2c(c1)C(=NNc1ccc(S(N)(=O)=O)cc1)C(=O)N2
193 to 194 | CN(c1cccc2cc(C3=NCC(CC(N)=O)S3)[nH]c12)S(=O)(=O)c1cccs1 (stereo not given)
52.5 to 53 | COc1cc(C)nc(-n2cccn2)n1

melting point [°C] | Compound
90 to 93 | Cc1cc(N2CCCCCC2)c2ccc(NCc3ccc(C(F)(F)F)cc3)cc2n1
123 to 125 | C=C(Cc1ccc(C=Cc2ccc(CC(=C)C(=O)OCC)cc2)cc1)C(=O)O
82 to 85 | CCOC(=O)C1CCc2ccc(N)c(C)c2O1 (stereo not given)
173 to 175 | N[C@@H](C/C(=C\C1CCCC1)C(=O)O)C(=O)O
96 | Clc1ccc(Cc2ccc(-c3ccccc3)cc2)cc1
237 to 239 | CC(=O)NC[C@H]1CN(c2ccc(C(=O)c3ccc4ccc(C)cn34)cc2)C(=O)O1
167 to 169 | N#Cc1ccccc1N1CCN(Cc2cn3cc(Cl)ccc3n2)CC1
163 | CN1C(=O)CC[C@]2(C)c3ccc(-c4cccc(C=O)c4)cc3CC[C@@H]12
89 to 90 | COc1ccc(C2CCS(=O)(=O)C2)cc1OC1CCCC1 (stereo not given)
230 to 233 | O=C1C=Cc2cc3c(cc2=C1)C=C(S(=O)(=O)NCCN1CCOCC1)C(=O)C=3S(=O)(=O)NCCN1CCOCC1
203 | Oc1ccc2c(-c3ccc(Cl)cc3)noc2c1
117 to 118 | COC(=O)CSC=C1C(=O)OC(C)(C)OC1=O
128 | O=C1Cc2c(ccc3c2OC(CNCc2ccccc2)CC3)N1 (stereo not given)
60 to 63 | COc1ccc(CC(=O)NCC(OC)OC)cc1OC
98.4 | COc1cc(O)c(C(=O)C=Cc2ccco2)c(OC)c1
197 to 199 | O=C(NC(NC(=S)Nc1cccnc1)C(Cl)(Cl)Cl)c1ccc(I)cc1 (stereo not given)
161 to 162 | O=CNCCOc1cccc2c1c1ccccc1n2Cc1ccccc1
95 to 97.6 | Cc1ncsc1C(=O)Nc1ccc(-n2nc(C(F)(F)F)cc2C2CC2)c(F)c1
111 to 114 | CN(C)C=NS(=O)(=O)c1cc(CCNC(=O)C(F)(F)F)ccc1OCCOC(F)(F)F
215 | O=C(O)COc1ccc(C(=NO)c2cccs2)c2ccccc12
112 to 113 | Cc1ccc(C(=O)NCCC(=O)OCc2ccccc2)c(NC(=O)CCCCNC(=O)OC(C)(C)C)c1
145 | COc1cc(-c2ccccc2C)cc2oc(=O)c(C)c(C)c12
70 to 72 | CCCCCCCCCCCCCCCCCCOc1cc(OCCCOc2ccc(S(C)(=O)=O)cc2)cc(N(CC(=O)OC)CC(=O)OC)c1
146 to 148 | CC(C)(C)CC(C)(C)c1ccc(Oc2cc3nc(-c4ccco4)oc3cc2[N+](=O)[O-])cc1

melting point [°C] | Compound
357 | CCOC(=O)c1cc2c(ccc3nc(O)c(O)nc32)s1
126 to 128 | O=C(CC1CCCCC1)Nc1ccccc1
231 to 234 | CCc1nn(Cc2cccnn2)c2c(=O)[nH]c(-c3cc(S(C)(=O)=O)ccc3OCC(C)C)nc12
183 to 185 | Cc1nc2cnc3ccccc3c2n1Cc1ccc(Cl)cc1
98 to 100 | Fc1cc2c(-c3cccs3)c(CBr)cnc2c(F)c1F
180 to 181 | COc1ccc(OC2COc3ccc(OCc4nc5cc(F)ccc5s4)cc3C2O)cc1 (stereo not given)
100 to 101 | CCOC(=O)C1=NNC2C(=O)N(Cc3ccccc3)C(=O)C12 (stereo not given)
151 to 152 | N#Cc1ccc(C(=O)CC2(O)OCCO2)cc1
186 to 188 | O=C1c2c(OCc3ccccc3)c(OCc3ccccc3)cc(OCc3ccccc3)c2-c2nn(CCNCCO)c3ccc(NCCNCCO)c1c23
141 to 143 | O=[N+]([O-])c1c(C(F)(F)F)cc(OCc2ccccc2)cc1C(F)(F)F
76 to 78 | OCCCOc1ccc(-n2ccnc2)cc1
173 to 175 | O=C(NNC(=O)C(F)(F)F)C(F)(F)F
131 to 132 | CC(=O)c1ccc(C(=O)NCCOc2ccc3ccccc3c2)cc1
174 to 176 | OC(c1ccccc1)(c1ccc(C(F)(F)F)cc1)c1ncc[nH]1 (stereo not given)
119 to 120 | C1=CC(n2c(-c3ccc4c(c3)OCO4)nc3ccccc32)CCC1 (stereo not given)
100 to 102 | CC1(C)COc2cc(O)c(C=O)cc21
134 to 137 | CCCCC1Oc2ccc(NC(C)=O)cc2C1O (stereo not given)
183 to 185 | CC(Oc1cc(-n2nc3n(c2=O)CCCC3)c(Cl)cc1Cl)C(=O)O (stereo not given)
59 to 60 | CCOC(=O)c1c(C)nc(-c2ccccc2)nc1-c1cccc(C(F)(F)F)c1
127 to 128 | COc1ccc(COc2cncc3c2C(=O)c2c(NCCN(C)C)ccc(Cl)c2C3=O)cc1
130 to 132 | Cc1cnc2sc(SCc3ccccc3)nn2c1=O
222 to 223 | Nc1nccc(-c2c(-c3ccccc3)nn3ccccc23)n1
171 to 174 | FC(F)c1nc2ccccc2n1-c1nc(Nc2ccccc2)nc(N2CCOCC2)n1
295 | COc1ccc(-c2ccc3cnc(Nc4cc5c(cc4F)CCC(=O)N5)nn23)cn1

Compound | melting point [°C]
CCN(CCc1c[nH]c2ccc(F)cc12)C1COc2c(F)ccc(C(N)=O)c2C1 (stereo not given) | 127
COC(=O)C=CC1C(C(=O)OC(C)(C)C)C1(C)C (stereo not given) | 67
Nc1ncc([N+](=O)[O-])cc1[N+](=O)[O-] | 190 to 191
O=C1CN=C(c2ccccc2)c2cc(C(c3ccc(Cl)cc3)n3ccnc3)ccc2N1 (stereo not given) | 144
